Source: the NIST ThermoML archive (doi:10.1021/je060271a)
Where “and” joins values, the source holds several entries; their conditions need not be identical. Equal values may be shown once.

Conditions: 343.15 K, Liquid, Vibrating tube method

CCCCCC(=O)OCC(COC(=O)CCCCC)(COC(=O)CCCCC)COC(=O)CCCCC [pentaerythritol tetrahexanoate]
Conditions | mass density
242.7 kPa | 957.2 kg/m3
242.9 kPa | 957.3 kg/m3
243.1 kPa | 957.3 kg/m3
243.2 kPa | 957.3 kg/m3 and 957.2 kg/m3
243.6 kPa | 957.2 kg/m3
243.9 kPa | 957.3 kg/m3 and 957.1 kg/m3
244.3 kPa | 957.3 kg/m3
244.5 kPa | 957.2 kg/m3 and 957.3 kg/m3
244.8 kPa | 957.3 kg/m3
245 kPa | 957.2 kg/m3 and 957.4 kg/m3
245.3 kPa | 957.3 kg/m3 and 957.2 kg/m3
245.5 kPa | 957.2 kg/m3
245.7 kPa | 957.2 kg/m3
245.9 kPa | 957.3 kg/m3
246.2 kPa | 957.4 kg/m3
246.4 kPa | 957.3 kg/m3
246.6 kPa | 957.3 kg/m3
249 kPa | 957.2 kg/m3
249.5 kPa | 957.2 kg/m3
249.9 kPa | 957.4 kg/m3
250 kPa | 957.2 kg/m3
250.2 kPa | 957.1 kg/m3
251.6 kPa | 957.3 kg/m3
251.8 kPa | 957.3 kg/m3 and 957.2 kg/m3
251.9 kPa | 957.3 kg/m3
252.3 kPa | 957.3 kg/m3 and 957.2 kg/m3
252.6 kPa | 957.1 kg/m3
252.8 kPa | 957.2 kg/m3
253.2 kPa | 957.2 kg/m3
253.3 kPa | 957.3 kg/m3 and 957.2 kg/m3 and 957.4 kg/m3
253.7 kPa | 957.2 kg/m3
254 kPa | 957.2 kg/m3
254.4 kPa | 957.2 kg/m3
254.9 kPa | 957.3 kg/m3
255.1 kPa | 957.2 kg/m3 and 957.3 kg/m3
255.4 kPa | 957.3 kg/m3
255.6 kPa | 957.4 kg/m3
256.3 kPa | 957.3 kg/m3
256.5 kPa | 957.1 kg/m3
256.6 kPa | 957.2 kg/m3
256.8 kPa | 957.2 kg/m3
257 kPa | 957.2 kg/m3
257.3 kPa | 957.3 kg/m3
257.5 kPa | 957.2 kg/m3
257.7 kPa | 957.3 kg/m3
257.9 kPa | 957.3 kg/m3
258.2 kPa | 957.2 kg/m3
259.2 kPa | 957.2 kg/m3
259.6 kPa | 957.4 kg/m3
259.9 kPa | 957.3 kg/m3
260.1 kPa | 957.3 kg/m3
260.4 kPa | 957.3 kg/m3
260.6 kPa | 957.3 kg/m3
261 kPa | 957.3 kg/m3 and 957.2 kg/m3
261.3 kPa | 957.2 kg/m3
261.5 kPa | 957.2 kg/m3
261.7 kPa | 957.2 kg/m3
261.8 kPa | 957.3 kg/m3
262.2 kPa | 957.3 kg/m3
262.5 kPa | 957.4 kg/m3
262.9 kPa | 957.4 kg/m3 and 957.2 kg/m3
263 kPa | 957.2 kg/m3
263.4 kPa | 957.1 kg/m3 and 957.4 kg/m3 and 957.3 kg/m3
263.7 kPa | 957.4 kg/m3 and 957.3 kg/m3
266.9 kPa | 957.4 kg/m3
270.7 kPa | 957.2 kg/m3
271.2 kPa | 957.3 kg/m3
273.5 kPa | 957.3 kg/m3
273.6 kPa | 957.4 kg/m3
274 kPa | 957.3 kg/m3
274.3 kPa | 957.3 kg/m3
275.2 kPa | 957.3 kg/m3
275.6 kPa | 957.4 kg/m3
275.7 kPa | 957.4 kg/m3
275.9 kPa | 957.2 kg/m3
276.1 kPa | 957.4 kg/m3
276.4 kPa | 957.2 kg/m3
276.6 kPa | 957.4 kg/m3
276.9 kPa | 957.3 kg/m3
277.3 kPa | 957.3 kg/m3
277.6 kPa | 957.3 kg/m3
278 kPa | 957.3 kg/m3
278.2 kPa | 957.2 kg/m3
278.3 kPa | 957.2 kg/m3
278.7 kPa | 957.3 kg/m3
279 kPa | 957.3 kg/m3
279.2 kPa | 957.3 kg/m3
279.4 kPa | 957.2 kg/m3
279.6 kPa | 957.2 kg/m3
285.3 kPa | 957.4 kg/m3
285.6 kPa | 957.4 kg/m3 and 957.2 kg/m3
286.1 kPa | 957.3 kg/m3
286.3 kPa | 957.3 kg/m3
286.5 kPa | 957.3 kg/m3
286.7 kPa | 957.3 kg/m3
287 kPa | 957.4 kg/m3
287.2 kPa | 957.1 kg/m3
287.4 kPa | 957.3 kg/m3
287.5 kPa | 957.2 kg/m3
287.9 kPa | 957.3 kg/m3
288.2 kPa | 957.2 kg/m3
288.6 kPa | 957.3 kg/m3
288.7 kPa | 957.2 kg/m3
288.9 kPa | 957.3 kg/m3
289.1 kPa | 957.3 kg/m3
289.4 kPa | 957.2 kg/m3
289.8 kPa | 957.2 kg/m3 and 957.3 kg/m3
291.2 kPa | 957.3 kg/m3
291.4 kPa | 957.3 kg/m3
291.5 kPa | 957.4 kg/m3 and 957.2 kg/m3
291.9 kPa | 957.4 kg/m3
292.2 kPa | 957.3 kg/m3
292.4 kPa | 957.3 kg/m3 and 957.4 kg/m3
292.7 kPa | 957.4 kg/m3
293.1 kPa | 957.3 kg/m3
293.4 kPa | 957.3 kg/m3
293.6 kPa | 957.3 kg/m3
294.6 kPa | 957.3 kg/m3
294.7 kPa | 957.3 kg/m3
296.4 kPa | 957.4 kg/m3 and 957.3 kg/m3
296.6 kPa | 957.3 kg/m3
297.1 kPa | 957.3 kg/m3
297.3 kPa | 957.3 kg/m3
297.6 kPa | 957.4 kg/m3
298 kPa | 957.4 kg/m3 and 957.3 kg/m3 and 957.2 kg/m3
298.5 kPa | 957.3 kg/m3
298.8 kPa | 957.4 kg/m3
299 kPa | 957.2 kg/m3
299.9 kPa | 957.3 kg/m3
305.4 kPa | 957.4 kg/m3
305.8 kPa | 957.2 kg/m3
306 kPa | 957.3 kg/m3
306.3 kPa | 957.4 kg/m3
306.8 kPa | 957.4 kg/m3 and 957.3 kg/m3
307.5 kPa | 957.3 kg/m3
307.9 kPa | 957.3 kg/m3
308.2 kPa | 957.3 kg/m3
308.4 kPa | 957.2 kg/m3
308.7 kPa | 957.5 kg/m3 and 957.3 kg/m3
309.1 kPa | 957.3 kg/m3
309.3 kPa | 957.3 kg/m3
309.4 kPa | 957.4 kg/m3
309.8 kPa | 957.1 kg/m3
310.6 kPa | 957.3 kg/m3
311.2 kPa | 957.3 kg/m3
